Where a name gives a salt, the structure may show the parent alone.

As a reminder, the EC50 is the concentration at which the effect is half-maximal. Low values mean a more potent agent, high ones a less potent agent.

The first assay relates to SMN.
Assay: not given
To be noted: cited from earlier work.
Turning to `CCCC(=O)[O-].[Na+]` [sodium butyrate], the SMN expression result is “increase SMN expession”.

In the case of phenylbuytreate, the SMN expression entry is given as “increase SMN expession”.

For another assay, the system named is SMN2 promoter. Nature of the assay: SMN2 promoter assay (β-lactamase reporter) in NSC-34 cells. Type of assay: cell-based, mouse. To be noted: Mus musculus, SMN2 promoter driving β-lactamase, 12 point dose curve, average of 3-6 dose curve experiments.
`Nc1nc(N)c2c(O[C@@H]3CCc4ccc(Cl)cc43)cccc2n1` [Example 150, 5-((R)-6-Chloroindan-1-yloxy)quinazoline-2,4-diamine] came in with an EC50 of under 1000 nM.

Regarding `Nc1nc(N)c2c(OCC3CC4CCC3C4)cccc2n1` (stereo not shown) [Example 151, 5-(Bicyclo[2.2.1]hept-2-ylmethoxy)quinazoline-2,4-diamine], the EC50 is under 1000 nM.

On to `CC1(C)[C@H]2CC[C@H](COc3cccc4nc(N)nc(N)c34)[C@@H]1C2` [Example 152, 5-((1S,2S,5S)-6,6-Dimethylbicyclo[3.1.1]hept-2-ylmethoxy) quinazoline-2,4-diamine], for which the EC50 was under 1000 nM.

In turn, `COCOCC(Oc1cccc2nc(N)nc(N)c12)c1ccc(F)cc1` (stereo not shown) [Example 153, 5-[1-(4-Fluorophenyl)-2-methoxymethoxyethoxy]quinazoline-2,4-diamine] gave a concentration for a half-maximal effect (EC50) of under 1000 nM.

Regarding `Nc1nc(N)c2c(OC(CO)c3ccc(F)cc3)cccc2n1` (stereo not shown) [Example 154, 2-(2,4-Diaminoquinazolin-5-yloxy)-2-(4-fluorophenyl)ethanol hydrochloride], the EC50 is under 1000 nM.

`COCOC(COc1cccc2nc(N)nc(N)c12)c1ccc2c(c1)OCO2` (stereo not shown) [Example 155, 5-(2-Benzo[1,3]dioxol-5-yl-2-methoxymethoxyethoxy)quinazoline-2,4-diamine]: the EC50 was under 1000 nM.

Consider `COCOCC(Oc1cccc2nc(N)nc(N)c12)c1ccc2c(c1)OCO2` (stereo not shown) [Example 156, 5-(1-Benzo[1,3]dioxol-5-yl-2-methoxymethoxyethoxy)quinazoline-2,4-diamine], for which the 50% effective concentration (EC50) is under 1000 nM.

In turn, `Nc1nc(N)c2c(OCC(O)c3ccccc3)cccc2n1` (stereo not shown) [Example 157, 2-(2,4-Diaminoquinazolin-5-yloxy)-1-phenyl-ethanol] showed an EC50 of under 1000 nM.

With `Nc1nc(N)c2c(COc3cccc(Cl)c3)cccc2n1` [Example 158, 5-(3-Chlorophenoxymethyl)quinazoline-2,4-diamine], the EC50 was under 1000 nM.

The molecule `Nc1nc(N)c2c(COc3ccccc3I)cccc2n1` [Example 159, 5-(2-Iodophenoxymethyl)quinazoline-2,4-diamine] yielded an EC50 of under 1000 nM.

`Nc1nc(N)c2c(OCC(O)c3ccc(Cl)cc3)cccc2n1` (stereo not shown) [Example 160, 1-(4-Chlorophenyl)-2-(2,4-diaminoquinazolin-5-yloxy)ethanol]: the EC50 is under 1000 nM.

For `Nc1nc(N)c2c(OCC(O)c3cccc(Cl)c3)cccc2n1` (stereo not shown) [Example 161, 1-(3-Chlorophenyl)-2-(2,4-diaminoquinazolin-5-yloxy)ethanol], the EC50 is under 1000 nM.

`C[C@H](Oc1cccc2nc(N)nc(N)c12)c1cccc(Cl)c1` [Example 162, 5-[(S)-1-(3-Chlorophenyl)ethoxy]quinazolin-2,4-diamine] registered an EC50 of under 1000 nM.

As to `Nc1nc(N)c2c(OCC(O)c3ccc(C(F)(F)F)cc3)cccc2n1` (stereo not shown) [Example 163, 2-(2,4-Diaminoquinazolin-5-yloxy)-1-(4-trifluoromethylphenyl)ethanol], the EC50 is under 1000 nM.

Turning to `Nc1nc(N)c2c(OC(CO)c3ccc(Cl)cc3)cccc2n1` (stereo not shown) [Example 164, 2-(4-Chlorophenyl)-2-(2,4-diaminoquinazolin-5-yloxy)ethanol hydrochloride], the EC50 was under 1000 nM.

Consider `COC(COc1cccc2nc(N)nc(N)c12)c1ccc(Cl)cc1` (stereo not shown) [Example 165, 5-[2-(4-Chlorophenyl)-2-methoxyethoxy]quinazoline-2,4-diamine], for which the EC50 is under 1000 nM.

In turn, `COCC(Oc1cccc2nc(N)nc(N)c12)c1ccccc1` (stereo not shown) [Example 166, 5-(2-Methoxy-1-phenylethoxy)quinazoline-2,4-diamine] yielded an EC50 of under 1000 nM.

As to `CC(CC(O)(c1ccc(Cl)cc1)c1ccc(Cl)cc1)Oc1cccc2nc(N)nc(N)c12` (stereo not shown) [Example 168, 1,1-Bis-(4-chlorophenyl)-3-(2,4-diaminoquinazolin-5-yloxy)butan-1-ol], the EC50 lay within 1000 to 5000 nM.

`COC(COc1cccc2nc(N)nc(N)c12)c1ccc2c(c1)OCO2` (stereo not shown) [Example 169, 5-(2-Benzo[1,3]dioxol-5-yl-2-methoxyethoxy)quinazoline-2,4-diamine hydrochloride] showed an EC50 of under 1000 nM.

In turn, `Nc1nc(N)c2c(OC(CO)c3ccc4c(c3)OCO4)cccc2n1` (stereo not shown) [Example 170, 2-Benzo[1,3]dioxol-5-yl-2-(2,4-diaminoquinazolin-5-yloxy)ethanol hydrochloride] showed an EC50 of under 1000 nM.

Source of the values: patent US9067897B2, “2,4-Diaminoquinazolines for spinal muscular atrophy” (Families of Spinal Muscular Atrophy, priority 2004, dated 2015).
